Laboratory results published in patent US8044088B2, “1-acetic acid-indole derivatives with PGD2 antagonist activity” (Oxagen Limited, priority 2005, dated 2011).
pKi: −log10 of the molar value.

Assays:
CRTH2 Receptor = biological target: T1, CRTH2 Receptor (Homo sapiens, UniProt Q9Y5Y4); assay: Radioligand binding assay, [3H]PGD2, CHO/CRTH2 cell membranes; settings: [3H]PGD2 displacement, membranes of CHO cells transfected with CRTH2
T1 construct: expressed in transfected cells; host or cells: Chinese Hamster Ovary (CHO) cells, membranes
T1 sequence (Q9Y5Y4 1-395): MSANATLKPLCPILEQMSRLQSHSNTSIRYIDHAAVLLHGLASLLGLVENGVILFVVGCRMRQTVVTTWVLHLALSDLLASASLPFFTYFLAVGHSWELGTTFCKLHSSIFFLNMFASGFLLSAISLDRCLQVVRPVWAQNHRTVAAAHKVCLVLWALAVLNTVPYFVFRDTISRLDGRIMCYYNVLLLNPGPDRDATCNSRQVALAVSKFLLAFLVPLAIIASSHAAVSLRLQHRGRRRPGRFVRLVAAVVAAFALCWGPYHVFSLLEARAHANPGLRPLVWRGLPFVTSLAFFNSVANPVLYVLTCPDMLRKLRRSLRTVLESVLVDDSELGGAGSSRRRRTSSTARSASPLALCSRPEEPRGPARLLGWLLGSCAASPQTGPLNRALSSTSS
Description: (§1) Chinese Hamster Ovary cells were transfected with CRTH2 or DP receptors (CHO/CRTH2 and CHO/DP) and were maintained in culture in a humidified atmosphere at 37° C. (5% CO2) in Minimum Essential Medium (MEM) supplemented with 10% foetal bovine serum, 2 mM glutamine, and 1 mg ml^−1 active G418. The cells were passaged every 2-3 days. For radioligand binding assay, cells were prepared in triple-layer flasks or in 175 cm^2 square flasks (for membrane preparation). For calcium mobilisation assay, cells were grown in a 96 well plate 24h prior to the assay at a density of 80,000 cells per well.
(§2) Membranes were prepared either from CHO/CRTH2 and CHO/DP cells, or from platelets (as a source of TP receptors). CHO cells grown to confluency were washed with PBS and detached using a Versene solution (15 ml per flask). When the cells were grown in 175 cm^2 square flask, they were collected by scrapping in PBS. The cell suspensions were centrifuged (1,700 rpm, 10 min, 4° C.) and resuspended in 15 ml of buffer (1×HBSS, supplemented with 10 mM HEPES, pH 7.3). Cell suspensions were then homogenised using an Ultra Turrax at setting 4-6 for 20 s. The homogenate was centrifuged at 1,700 rpm for 10 min and the supernatant was collected and centrifuged at 20,000 rpm for 1 h at 4° C. The resulting pellet was resuspended in buffer and stored at −80° C. in aliquots of 200-500 μl. The protein concentration was determined by the method of Bradford (1976), using bovine serum albumin as standard. The platelets were washed by centrifugation at 600×g for 10 min and resuspended in ice-cold assay buffer (10 mM Tris-HCl, pH 7.4, 5 mM Glucose, 120 mM NaCl, 10 μM indomethacin) and directly centrifuged at 20,000 rpm for 30 min at 4° C. […]
(§3) [^3H]PGD2 (160 Ci/mmol) binding experiments were performed on membranes prepared as described above. […] The Unifilter plates were dried at room temperature for at least 1 h and the radioactivity retained on the filters was determined on a Beta Trilux counter (PerkinElmer Life Sciences), following addition of 40 μl of Optiphase Hi-Safe 3 (Wallac) liquid scintillation. […]

DP Receptor = biological target: T2, DP Receptor (Homo sapiens, UniProt Q13258); assay: Radioligand binding assay, [3H]PGD2, CHO/DP cell membranes; settings: [3H]PGD2 displacement, membranes of CHO cells transfected with DP
T2 construct: expressed in transfected cells; host or cells: Chinese Hamster Ovary (CHO) cells, membranes
T2 sequence (Q13258 1-359): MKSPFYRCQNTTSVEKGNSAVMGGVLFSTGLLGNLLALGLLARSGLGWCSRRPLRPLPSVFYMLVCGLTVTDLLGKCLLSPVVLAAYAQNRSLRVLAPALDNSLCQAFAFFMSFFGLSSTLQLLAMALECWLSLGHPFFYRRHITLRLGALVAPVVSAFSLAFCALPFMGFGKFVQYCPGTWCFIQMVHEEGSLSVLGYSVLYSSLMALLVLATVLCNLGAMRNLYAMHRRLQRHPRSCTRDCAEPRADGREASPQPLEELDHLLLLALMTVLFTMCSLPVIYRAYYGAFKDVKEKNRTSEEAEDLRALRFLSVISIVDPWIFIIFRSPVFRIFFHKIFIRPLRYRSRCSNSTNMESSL
Description: as §1, §2, §3

Row | pKi (CRTH2 Receptor) | pKi (DP Receptor) | SMILES
1 | 9.00 | 5.04 | Cc1c(Cc2cccn2S(=O)(=O)c2ccccc2)c2cc(F)ccc2n1CC(=O)O [Compound 1, [3-(1-Benzenesulfonyl-1H-pyrrol-2-ylmethyl)-5-fluoro-2-methyl-indol-1-yl]-acetic acid]
2 | 9.70 | 5.74 | Cc1ccc(S(=O)(=O)n2cccc2Cc2c(C)n(CC(=O)O)c3ccc(F)cc23)cc1 [Compound 2, {5-Fluoro-2-methyl-3-[1-(toluene-4-sulfonyl)-1H-pyrrol-2-ylmethyl]-indol-1-yl}-acetic acid]
3 | 8.70 | 5.10 | Cc1c(Cc2cccn2S(=O)(=O)c2ccc(F)cc2F)c2cc(F)ccc2n1CC(=O)O [Compound 3, {3-[1-(2,4-Difluoro-benzenesulfonyl)-1H-pyrrol-2-ylmethyl]-5-fluoro-2-methyl-indol-1-yl}-acetic acid]
